In PubChem BioAssay AID623893 (Vanderbilt Specialized Chemistry Center, 2012) one finds fold shift data, which are given here for 1 compound.

In this experiment the target is Metabotropic glutamate receptor 7 (Rattus norvegicus) (UniProt P35400). The experiment is described as follows: mGlu7 L-AP4 response modulation check – cell-based, rat, thallium flux, L-AP4 agonist, selectivity assay for mGlu4 lead optimization, profiling panel (AID 623893). The conditions noted are these: mGlu7 cells, at 10 µM.
Sequence of Metabotropic glutamate receptor 7 (Rattus norvegicus) (P35400 whole entry, looked up): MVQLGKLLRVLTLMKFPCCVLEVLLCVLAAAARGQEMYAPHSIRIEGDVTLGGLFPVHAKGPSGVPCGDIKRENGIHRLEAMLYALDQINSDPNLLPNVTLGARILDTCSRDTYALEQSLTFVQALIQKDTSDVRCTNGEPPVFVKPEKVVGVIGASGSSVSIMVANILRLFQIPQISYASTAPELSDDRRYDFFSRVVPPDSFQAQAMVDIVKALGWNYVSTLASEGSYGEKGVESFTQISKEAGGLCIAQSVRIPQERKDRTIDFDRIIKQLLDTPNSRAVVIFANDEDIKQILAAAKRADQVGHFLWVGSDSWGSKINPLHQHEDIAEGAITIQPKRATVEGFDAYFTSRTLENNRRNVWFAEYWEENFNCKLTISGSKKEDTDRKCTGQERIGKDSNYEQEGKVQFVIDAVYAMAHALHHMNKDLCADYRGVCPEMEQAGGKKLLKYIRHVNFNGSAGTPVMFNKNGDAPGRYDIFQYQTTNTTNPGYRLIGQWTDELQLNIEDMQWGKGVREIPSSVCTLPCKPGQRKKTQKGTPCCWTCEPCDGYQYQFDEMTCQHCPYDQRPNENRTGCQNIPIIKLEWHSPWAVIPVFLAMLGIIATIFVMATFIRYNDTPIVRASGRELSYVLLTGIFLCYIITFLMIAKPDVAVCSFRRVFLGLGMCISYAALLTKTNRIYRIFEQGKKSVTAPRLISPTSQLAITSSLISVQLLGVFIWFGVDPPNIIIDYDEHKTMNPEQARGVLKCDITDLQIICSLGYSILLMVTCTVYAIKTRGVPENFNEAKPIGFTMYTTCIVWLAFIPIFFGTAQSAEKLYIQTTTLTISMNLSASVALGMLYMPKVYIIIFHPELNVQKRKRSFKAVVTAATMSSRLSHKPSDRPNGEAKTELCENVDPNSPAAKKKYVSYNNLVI

Activity calls are given as the source filed them.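 Rule for the calls: active = fold change in agonist EC50 with compound of 2 or more, a potentiator, or 0.5 or less, a blocker; inactive = fold change strictly between 0.5 and 2.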

Take `O=C(Nc1cccc(Cl)c1)c1ccccn1`: the fold shift is 1.44 (inactive).
